Data as given in patent US20150366836A1, “METHOD AND PHARMACEUTICAL COMPOSITION FOR TREATING COLORECTAL CANCER” (National Dong Hua University, priority 2014, published 2015).

Columns and labels:
[1] = tested on: HT-29 cells; assay: MTT assay cell viability, HT-29 cells; format: cell-based
Method: (§1) Two cell lines were used in this study, Caco2 cells and HT-29 cells. Both of them are colorectal cancer cells. Caco2 cells and HT-29 cells were maintained in DMEM (or RPMI) supplemented with 20% or 10% fetal bovine serum (FBS; GIBCO), pH 7.4 at 37° C. with continuous circulation of 5% CO2 incubator. The medium was changed every 2 days and the cells were trypsinized using trypsin/EDTA when reaching 80%-90% confluence.
(§2) In this example, the effects of HCD, PG, and 5-FU on the viability of Caco2 cells and HT-29 cells were examined. The MTT assay was employed for this purpose. The MTT (3-(4-,5-dimethylthiazol-2-yl)-2,5-diphenyltetrazolium bromide) assay is a common colorimetric method in the field for cell viability analysis. MTT (yellow tetrazolium salt) is reduced to a purple formazan by living cells and detection to the purple formazan can be calculated as the cell viability.
(§3) Briefly, cells (Caco2 or HT-29) were seeded in 96-well plate (7×10^3 cell per well) and incubated overnight (37° C., 5% CO2).
(§4) On the other hand, in the pretreatment analysis, cells (Caco2 or HT-29) were seeded in 96-well plate (7×10^3 cell per well) and incubated overnight (37° C., 5% CO2). In according to the treatments listed in the Table 1, Cells were pre-treated by HCD or PG for 6, 12, 24, 36, or 48 hr and then were treated by 5-FU for additional 24 hr.

[2] = tested on: HT-29 cells; assay: Cell cycle analysis by flow cytometer (PI staining), HT-29 cells; format: cell-based
Method: (§5) The results of Example 2 in cell viability hinted the effects of HCD, PG, and 5-FU on arresting cell cycle. In this example, the phase of cell cycle of Caco2 and HT-29 cells after the treatment listed in Table 1 was determined by flow cytometer. Briefly, 7×10^4 cells per well were inoculated in 12-wells plate and incubated overnight at 37° C., 5% CO2. Then, cells were treated according to the treatment listed in Table 1 by indicated time period. After treatment, cells were harvested by trypsin and fixed with 70% ethanol at −20° C. for at least 3 hr. The cells were washed in cold PBS twice and then incubated with 1 mL (v/v) staining solution (20 μg/mL propidium iodide (PI), 0.1% Triton X-100, 0.2 mg/mL Rnase) at 37° C. for 30 minutes. Lastly, cells were analyzed by flow cytometer (Cytomics™ FC500, Backman, Fullerton, Calif., USA). Data from 10,000 cells were collected for each experimental group.

[3] = tested on: Caco2 cells; assay: MTT assay cell viability, Caco2 cells; format: cell-based
Method: as §1, §2, §3, §4

[4] = tested on: Caco2 cells; assay: Cell cycle analysis by flow cytometer (PI staining), Caco2 cells; format: cell-based
Method: as §5

[5] = tested on: mouse bearing inflammatory bowel disease (IBD), AOM/DSS induced; assay: Mouse model bearing IBD (AOM/DSS induced), body weight and H&E staining of intestine; format: in vivo, C57/BL6 mice
Method: The animal experiments were approved by the National Dong-Hwa University Animal Ethics Committee and the experimental protocols were used according to the “Guide for the Care and Use of Laboratory Animals” of National Dong-Hwa University. On day 0, C57/BL6 mice (6-8 weeks old) were weighted and injected (intraperitoneal; i.p.) with 10 mg/kg body weight of azoxymethane (AOM) and then fed with 2% Dextran sodium sulfate solution (DSS solution) via water every day for 7 days. On day 8, the 2% DSS solution was changed to normal water for another 7 days. The cycle of DSS solution and water was repeated and the induction procedure was completed on day 35.
After the establishment of IBD in the experimental mice (on day 35), the mice were injected (i.p.) with 5-FU (15 mg/kg body weight) or HCD (0.64, 1.6, or 6.4 mg/kg body weight) once every three days for additional 30 days. Then, the mice were sacrificed. The colon, spleen, liver, and kidney thereof were immediately removed, observed, and further examined by H&E staining.

CC1=CCCC2C1(C)CCC(C)C2(C)CCC1=CC(=O)OC1O (stereo not drawn) [HCD, 16-hydroxy-cleroda-3,13-dine-15,16-olide]
effect of pre-treating on efficacy of 5-FU in the subsequent treatment (MTT) ([1]; HT-29, pre-treatment 6-48 hr, then 5-FU 2 μM 24 hr): significantly enhanced the efficacy of 5-FU | IC50 ([1]; HT-29 cells, 36 hr treatment): 5 µM | cell cycle arrest at sub-G1 phase vs control (in words) ([2]; HT-29): increased cell cycle arrest at sub-G1 phase | G0/G1 (%) ([2]; HT-29, 0.5 μM, 24 hr): 82.9 ± 0.849 % | G2/M (%) ([2]; HT-29, 0.5 μM, 24 hr): 8.2 ± 0 % | S (%) ([2]; HT-29, 0.5 μM, 24 hr): 3.3 ± 0.424 % | Sub G1 (%) ([2]; HT-29, 0.5 μM, 24 hr): 4.35 ± 0.495% | G0/G1 (%) ([2]; HT-29, 0.5 μM, 36 hr): 59.25 ± 0.54% | G2/M (%) ([2]; HT-29, 0.5 μM, 36 hr): 14.25 ± 1.01 % | S (%) ([2]; HT-29, 0.5 μM, 36 hr): 15.85 ± 1.68% | Sub G1 (%) ([2]; HT-29, 0.5 μM, 36 hr): 7.7 ± 0.81% | G0/G1 (%) ([2]; HT-29, 2 μM, 24 hr): 33.9 ± 1.414 % | G2/M (%) ([2]; HT-29, 2 μM, 24 hr): 22 ± 1.414% | S (%) ([2]; HT-29, 2 μM, 24 hr): 17.95 ± 0.212% | Sub G1 (%) ([2]; HT-29, 2 μM, 24 hr): 20.7 ± 0.707 % | G0/G1 (%) ([2]; HT-29, 2 μM, 36 hr): 35.95 ± 1.34 % | G2/M (%) ([2]; HT-29, 2 μM, 36 hr): 9.05 ± 1.485 % | S (%) ([2]; HT-29, 2 μM, 36 hr): 7.8 ± 0.14 % | Sub G1 (%) ([2]; HT-29, 2 μM, 36 hr): 43.95 ± 3.89 % | G0/G1 (%) ([2]; HT-29, 5 μM, 24 hr): 27.5 ± 4.808% | G2/M (%) ([2]; HT-29, 5 μM, 24 hr): 23.5 ± 2.97% | S (%) ([2]; HT-29, 5 μM, 24 hr): 15.1 ± 2.546% | Sub G1 (%) ([2]; HT-29, 5 μM, 24 hr): 22.95 ± 7.99 % | G0/G1 (%) ([2]; HT-29, 5 μM, 36 hr): 16.4 ± 4.95 % | G2/M (%) ([2]; HT-29, 5 μM, 36 hr): 11.15 ± 1.20 % | S (%) ([2]; HT-29, 5 μM, 36 hr): 7.5 ± 1.13 % | Sub G1 (%) ([2]; HT-29, 5 μM, 36 hr): 62 ± 6.93 % | cell cycle phases after pre-treatment then 5-FU (in words) ([2]; HT-29, pre-treatment, then 5-FU): increase of sub G1 phase and decrease of G2/M phase | effect of pre-treating on efficacy of 5-FU in the subsequent treatment (MTT) ([3]; Caco2, pre-treatment 6-48 hr, then 5-FU 2 μM 24 hr): significantly enhanced the efficacy of 5-FU | IC50 ([3]; Caco2 cells, 48 hr treatment): 5 µM | cell cycle arrest at sub-G1 phase vs control (in words) ([4]; Caco2): increased cell cycle arrest at sub-G1 phase | G0/G1 (%) ([4]; Caco2, 0.5 μM, 36 hr): 43.8 ± 3.81% | G2/M (%) ([4]; Caco2, 0.5 μM, 36 hr): 20.37 ± 4.24% | S (%) ([4]; Caco2, 0.5 μM, 36 hr): 17.3 ± 0.44% | Sub G1 (%) ([4]; Caco2, 0.5 μM, 36 hr): 14.4 ± 1.73% | G0/G1 (%) ([4]; Caco2, 0.5 μM, 48 hr): 44.13 ± 3.26% | G2/M (%) ([4]; Caco2, 0.5 μM, 48 hr): 21.2 ± 2.46% | S (%) ([4]; Caco2, 0.5 μM, 48 hr): 15.93 ± 0.9% | Sub G1 (%) ([4]; Caco2, 0.5 μM, 48 hr): 14.47 ± 5.05% | G0/G1 (%) ([4]; Caco2, 2 μM, 36 hr): 29.73 ± 4.22 % | G2/M (%) ([4]; Caco2, 2 μM, 36 hr): 23.73 ± 3.91% | S (%) ([4]; Caco2, 2 μM, 36 hr): 13.03 ± 0.5% | Sub G1 (%) ([4]; Caco2, 2 μM, 36 hr): 28.8 ± 4.2 % | G0/G1 (%) ([4]; Caco2, 2 μM, 48 hr): 25.73 ± 4.63% | G2/M (%) ([4]; Caco2, 2 μM, 48 hr): 22.03 ± 2.11% | S (%) ([4]; Caco2, 2 μM, 48 hr): 11.63 ± 1.08% | Sub G1 (%) ([4]; Caco2, 2 μM, 48 hr): 36.17 ± 7.48 % | G0/G1 (%) ([4]; Caco2, 5 μM, 36 hr): 19.4 ± 1.82 % | G2/M (%) ([4]; Caco2, 5 μM, 36 hr): 14.77 ± 0.8% | S (%) ([4]; Caco2, 5 μM, 36 hr): 9.9 ± 0.98 % | Sub G1 (%) ([4]; Caco2, 5 μM, 36 hr): 51.77 ± 1.65 % | G0/G1 (%) ([4]; Caco2, 5 μM, 48 hr): 15.67 ± 6.25 % | G2/M (%) ([4]; Caco2, 5 μM, 48 hr): 12.9 ± 0.87% | S (%) ([4]; Caco2, 5 μM, 48 hr): 9.87 ± 0.55% | Sub G1 (%) ([4]; Caco2, 5 μM, 48 hr): 54.2 ± 0.62 % | G2/M phase after pre-treatment then 5-FU (in words) ([4]; Caco2, 12 and 24 hr pretreatment of 1 or 2 μM, then 5-FU): decreased | intestine villus arrangement (H&E staining) ([5]; 0.64 mg/kg body weight i.p.): irregular arrangement of villus | lymph node (H&E staining) ([5]; 0.64 mg/kg body weight i.p.): not infiltrated into muscle mucosa layer | body weight ([5]; 0.64 mg/kg body weight i.p. once every three days, 30 days): initially reduced | intestine villus arrangement (H&E staining) ([5]; 1.6 mg/kg body weight i.p.): arranged in neat rows nearly as seen in the control mice | lymph node (H&E staining) ([5]; 1.6 mg/kg body weight i.p.): not infiltrated into muscle mucosa layer | intestine villus arrangement (H&E staining) ([5]; 6.4 mg/kg body weight i.p.): arranged in neat rows nearly as seen in the control mice | lymph node (H&E staining) ([5]; 6.4 mg/kg body weight i.p.): not infiltrated into muscle mucosa layer
